Data published in patent publication US20170181971A1, “Nanoparticle- and Drug-Containing Polymersomes for Medical Applications” (Northeastern University, priority 2014, published 2017).

System: ampicillin-resistant E. coli
Assay: Bacterial growth curve (OD600 for 24 hours) after treatment
Type: cell-based
Method: Bacteria transformation. First, an overnight suspension of E. coli cells (strain K-12 HB101; Bio-Rad, Hercules, Calif.) was pelleted by centrifugation and re-suspended in 250 μL of cold 50 mM calcium chloride (Sigma-Aldrich, St. Louis, Mo.) and placed in an ice bath. After 15 minutes on ice, 10 μg of the plasmid DNA was added, and the cells were returned to the ice bath for an additional 15 minutes. The cells were then heat shocked by placing them in a 42° C. water bath for exactly 45 seconds and then rapidly transferring them back to the ice bath for 2 minutes. This solution was then mixed with 750 μL of Lysogeny broth (LB, Sigma-Aldrich, St. Louis, Mo.). Finally, the complete transformed bacteria solution was streaked for inoculation on a LBagar plate containing 100 μg mL−1 of ampicillin and allowed to incubate overnight at 37° C.
Bacterial interactions. For each experimental trial, a single bacterial colony was selected and grown overnight in LB on a shaking incubator set at 200 rpm and 37° C. […] 100 μL of the bacterial suspension was then combined with varying AgPs treatment concentrations or controls in a 96 well plate. The final treatment volume in each well was brought up to 100 μL using 0.01 M PBS (e.g. 100 μL treatment +0 μL PBS, 90 μL treatment+10 μL PBS, 80 μL treatment+20 μL PBS, etc.). Control treatments were given 100 μL of PBS to keep the media dilution consistent. […]

`CC1(C)S[C@@H]2[C@H](NC(=O)[C@H](N)c3ccccc3)C(=O)N2[C@H]1C(=O)O` [free ampicillin, ampicillin] was tested. Which “bacteriostatic action (delay in time to reach exponential growth phase)” value (10^6 CFU mL^−1, OD600 for 24 hours) did it give?
The value was “no bacteriostatic effect”.

What about the “difference in bacterial growth between control treatments (incl. PBS)” value (ampicillin at 200 μg mL^−1, FIG. 7G) of the same molecule?
Its value is “no significant differences”.
